Reference: patent US20060014949A1 (SuperGen Inc., priority 2004, published 2006)

Columns and labels:
Format in all cases: physicochemical
[1] = Relative humidity stress experiments, XRPD after storage over saturated salt solutions; conditions: Sodium Chloride, 75.5 % RH @ 20° C., 27 days
Procedure: In relative humidity (RH) stress analysis, open vials containing solid samples were placed inside chambers containing saturated salt solutions along with a small amount of the undissolved salt. The chambers were sealed and allowed to stand at ambient temperature for several days. Samples were analyzed by X-ray powder diffraction (XRPD) immediately after removing the sample from the RH chamber. The RH values these salt solutions were obtained from an ASTM standard.

[2] = Thermogravimetric analysis (TGA); conditions: 25 to 150° C.; listed as A
Procedure: Thermogravimetric analysis (TGA) was carried out on TA Instruments TGA 2050 or 2950. The calibration standards were nickel and Alumel™. Samples were placed on a clean, aluminum sample pan, accurately weighed, and inserted into the TGA furnace. The samples were heated in nitrogen at a rate of 10° C./min, from 35° C. to a final temperature of 250° C.

[3] = Moisture sorption/desorption analysis (VTI SGA-100); conditions: for Weight % chg: Table 3
Procedure: Moisture sorption/desorption data were collected on a VTI SGA-100 Vapor Sorption Analyzer. Sorption and desorption data were collected over a range of 5 to 95% relative humidity (RH) at 10% RH increments under a nitrogen purge. Sodium chloride (NaCl) and polyvinylpyrrolidone (PVP) were used as the calibration standards. Equilibrium criteria used for analysis were less than 0.0100% weight change in 5 minutes, with a maximum equilibration time of 180 minutes if the weight criterion was not met. Data collected were not corrected for the initial moisture content of the samples.

[4] = Solid-state stress (compression, heating, grinding, storage) with XRPD form check; conditions: no solvent; Hydraulic Press 10,000 lbs 1 hour
Procedure: X-ray powder diffraction analyses were carried out on a Shimadzu XRD-6000 X-ray powder diffractometer using Cu Kα radiation having a wavelength of 1.5406 Å. The instrument is equipped with a fine-focus X-ray tube. The tube power was set by setting potential difference at 40 kV, and current 40 mA. The divergence and scattering slits were set at 1° and the receiving slit was set at 0.15 mm. Diffracted radiation was detected by a NaI scintillation detector. A theta-two theta continuous scan at 3°/min (0.4 sec/0.02° step) from 2.5 to 40 °2θ was performed. A silicon standard was analyzed each day to check the instrument alignment. Each sample was analyzed in a quartz sample holder. A variable temperature (VT-XRPD) experiment was performed on one form. The sample was prepared for analysis by pressing it into a variable temperature holder.

Nc1ncn([C@H]2C[C@H](O)[C@@H](CO)O2)c(=O)n1 [Form A]
XRPD result [1]: converts into form B
TGA Results: percent weight change from 25 to 150° C. [2]: <0.1%
total weight loss in the region from 5 to 45% RH ([3]; 5 to 45% RH): about 0.1%
total weight gain from 5 to 95% RH ([3]; 5 to 95% RH, listed as form A): 7.3%
Weight % chg ([3]; desorption, RH 4.93 %, 24.89 deg C, 533.4 min): 7.1472%
Weight % chg ([3]; desorption, RH 15.15 %, 24.89 deg C, 524.9 min): 7.1528%
Weight % chg ([3]; desorption, RH 25.13 %, 24.88 deg C, 515.4 min): 7.1586%
Weight % chg ([3]; desorption, RH 35.12 %, 24.88 deg C, 504.8 min): 7.1671%
Weight % chg ([3]; desorption, RH 45.07 %, 24.87 deg C, 493.8 min): 7.1753%
Weight % chg ([3]; desorption, RH 55.14 %, 24.88 deg C, 480.8 min): 7.1837%
Weight % chg ([3]; desorption, RH 65.19 %, 24.88 deg C, 467.8 min): 7.1925%
Weight % chg ([3]; desorption, RH 75.49 %, 24.88 deg C, 454.8 min): 7.2022%
Weight % chg ([3]; desorption, RH 85.43 %, 24.89 deg C, 443.8 min): 7.2106%
Weight % chg ([3]; sorption, RH 5.14 %, 24.92 deg C, 27.9 min): −0.0698%
Weight % chg ([3]; sorption, RH 14.81 %, 24.92 deg C, 41.6 min): −0.0784%
Weight % chg ([3]; sorption, RH 24.88 %, 24.92 deg C, 51.2 min): −0.0804%
Weight % chg ([3]; sorption, RH 34.89 %, 24.92 deg C, 62.2 min): −0.0733%
Weight % chg ([3]; sorption, RH 44.86 %, 24.91 deg C, 82.2 min): −0.1004%
Weight % chg ([3]; sorption, RH 54.83 %, 24.91 deg C, 93.2 min): −0.0931%
Weight % chg ([3]; sorption, RH 64.82 %, 24.91 deg C, 107.7 min): −0.0775%
Weight % chg ([3]; sorption, RH 74.73 %, 24.91 deg C, 118.3 min): −0.0646%
Weight % chg ([3]; sorption, RH 84.63 %, 24.91 deg C, 304.2 min): 3.8389%
Weight % chg ([3]; sorption, RH 94.67 %, 24.90 deg C, 433.1 min): 7.2104%
Weight % chg ([3]; start, RH 1.46 %, 24.92 deg C, 0.0 min): 0.0000%
solid form after moisture sorption/desorption analysis ([3]; after sorption/desorption cycle, listed as form A): retained during the desorption cycle as decitabine polymorph form B
weight (water) lost upon equilibration to 5% RH ([3]; equilibration to 5% RH, listed as form A): 0.06%
RH above which moisture sorption begins ([3]; sorption cycle): above 75 % RH
XRPD Pattern [4]: did not induce a form change
